# From PubChem BioAssay (NCI)
# Several values for one entry are separate records, joined by “and”; a condition that tells them apart may be missing. Equal entries are not always repeated.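 Step 1: Grow cells in 96-well plates. Step 2: Expose to compound for 48 hours at 5 concentrations. Step 3: Interpolate endpoints linearly; if unreached, use highest concentration. Here, GI50 denotes the concentration required for 50% inhibition of growth. TGI: total growth inhibition.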
# Tests used:
# Test in all cases: NCI tumour cell line growth inhibition, 48 h
# [1] = tested on: CAKI-1 renal
# [2] = tested on: SN12C renal
# [3] = tested on: HT29 colon
# [4] = tested on: IGROV1 ovarian
# [5] = tested on: TK-10 renal
# [6] = tested on: U251 CNS
# [7] = tested on: SF-295 CNS
# [8] = tested on: SF-539 CNS
# [9] = tested on: UO-31 renal
# [10] = tested on: HOP-92 NSCLC
Compound,GI50 [1],TGI [1],GI50 [2],TGI [2],GI50 [3],TGI [3],GI50 [4],TGI [4],GI50 [5],TGI [5],GI50 [6],TGI [6],GI50 [7],TGI [7],GI50 [8],TGI [8],GI50 [9],TGI [9],GI50 [10] [µM],TGI [10] [µM]
c1ccc2c3c([nH]c2c1)C(c1ccc(C2NCCc4c2[nH]c2ccccc42)cc1)NCC3 (configuration not stated),1.66 µM,4.03 µM,1.47 µM,3.05 µM,0.28 µM,0.735 µM,1.34 µM,2.83 µM,1.98 µM,4.09 µM,0.321 µM,1.1 µM,1.62 µM,3.33 µM,1.62 µM,3.04 µM,1.04 µM,2.26 µM,0.731,2.89
O=S(=O)(c1cnccc1N1CCN(CCO)CC1)N1CCCC1,–,> 100 µM,–,> 100 µM,–,> 100 µM,–,> 100 µM,–,> 100 µM,–,> 100 µM,–,> 100 µM,–,> 100 µM,–,> 100 µM,–,> 100
NS(=O)(=O)OCCCCCCCOS(N)(=O)=O,–,594 µM,–,1180 µM,–,1630 µM,–,937 µM,–,1920 µM,–,683 µM,–,1020 µM,–,645 µM,–,680 µM,–,781
Cn1cc(C2=C(c3cn(CCCCCSC(=N)N)c4ccccc34)C(=O)NC2=O)c2ccccc21,4.03 µM,7.94 µM,2.67 µM,6.01 µM,1.11 µM,4.03 µM,3.51 µM,7.93 µM,2.66 µM,5.71 µM,2.5 µM,5.65 µM,1.76 µM,5.38 µM,3.51 µM,6.77 µM,3.62 µM,7.29 µM,3.27,7.21
CCCCCCCCCCCC[n+]1ccc2ccccc2c1,1.65 µM,5.06 µM,1.17 µM,2.65 µM,0.419 µM,2.14 µM,0.413 µM,1.85 µM,1.17 µM,2.57 µM,0.348 µM,1.42 µM,0.882 µM,2.74 µM,1.58 µM,3.22 µM,1.19 µM,3.23 µM,0.3,1.79
O=C1NC(=NCCCc2ccccc2)S/C1=C\c1ccc2ncccc2c1,5.09 µM,> 18.2 µM,6.13 µM,20.9 µM,6.55 µM,> 21.4 µM,5.49 µM,14.1 µM,4.15 µM,10.5 µM,2.9 µM,10.3 µM,4.75 µM,> 17.5 µM,4.05 µM,9.49 µM,4.06 µM,11.9 µM,4.22,13.4
CSC(=Nc1ccccc1)/N=C(\SCc1ccccc1)N(C)C,–,2.79 µM,–,2.42 µM,–,1.05 µM,–,2.45 µM,–,2.63 µM,–,2.54 µM,–,2.89 µM,–,2.57 µM,–,2.82 µM,–,2.73
C#CCOc1ccc2ncnc(Nc3ccc(NC(=O)C=C)cc3)c2c1,> 100 µM,> 100 µM,44 µM,> 100 µM,30.6 µM,> 100 µM,49.8 µM,> 100 µM,2.62 µM,9.03 µM,79.3 µM,> 100 µM,> 100 µM,> 100 µM,9.76 µM,39.6 µM,11.6 µM,44.4 µM,7.84,52.7
CC1=C(C(=O)Nc2ccc(Cl)c(C(=O)OC(C)C)c2)SCCO1,–,> 100 µM,–,> 100 µM,–,50.8 µM,–,> 81.1 µM,–,> 100 µM,–,81.3 µM,–,> 80.7 µM,–,> 97 µM,–,73 µM,–,> 100
CC(=O)[O][Hg][c]1c(C)c(C)cc(C)c1C,2.03 µM,5.4 µM,1.94 µM,4.48 µM,1.6 µM,6.31 µM,0.703 µM,2.37 µM,1.86 µM,3.84 µM,0.765 µM,2.26 µM,1.87 µM,4.14 µM,1.51 µM,3.11 µM,1.68 µM,3.25 µM,0.128,0.705
CCC(=O)c1c(C(F)(F)F)n([O-])c2cc(F)c(F)cc2[n+]1=O,0.329 µM,1.03 µM,0.649 µM,2.07 µM,0.228 µM,0.492 µM,0.52 µM,1.49 µM,1.05 µM,2.39 µM,1.43 µM,3.39 µM,0.37 µM,1.67 µM,1.54 µM,3.18 µM,0.971 µM,3.05 µM,0.762,2.19
ClC(Cl)[Si]12OCCN(CCO1)CCO2,–,> 100 µM,–,> 100 µM,–,> 100 µM,–,> 100 µM,–,> 100 µM,–,> 100 µM,–,> 100 µM,–,> 100 µM,–,> 100 µM,–,> 100
CN(Cc1cnc2nc(N)nc(N)c2n1)c1ccc(C(=O)NC(CCC(=O)O)C(=O)O)cc1Br (configuration not stated),< 0.01 µM,–,< 0.01 µM,> 100 µM,< 0.01 µM,> 100 µM,< 0.01 µM,1.01 µM,< 0.01 µM,> 100 µM,< 0.0134 µM,> 100 µM,< 0.01 µM,0.201 µM,< 0.01 µM,8.44 µM,< 0.01 µM,–,1.47,23.1
O=C1c2ccccc2C(=O)c2c(OCCOCCO)cccc21,–,74.2 µM,–,8.08 µM,–,> 100 µM,–,> 100 µM,–,> 100 µM,–,> 100 µM,–,> 100 µM,–,> 100 µM,–,> 100 µM,–,96.9
Cn1nc(-c2ccccc2)c2c(/C=C/c3ccccc3)onc2c1=O,–,> 100 µM,–,> 100 µM,–,> 100 µM,–,> 100 µM,–,> 100 µM,–,> 100 µM,–,> 100 µM,–,> 100 µM,–,> 100 µM,–,98.2
COc1ccc(/C(C#N)=C2C=C/C(=N/O)c3ccccc3\2)cc1,0.608 µM,26.1 µM,0.418 µM,13.5 µM,0.705 µM,4.53 µM,0.523 µM,17.6 µM,11.3 µM,28 µM,0.446 µM,15.1 µM,0.687 µM,13 µM,0.2 µM,0.67 µM,0.593 µM,15.3 µM,0.39,6.96
CO[C@H]1C[C@@H]2CC[C@@H](C)[C@@](O)(O2)C(=O)C(=O)N2CCCC[C@H]2C(=O)O[C@H]([C@H](C)C[C@@H]2CC[C@@H](OCCO)[C@H](OC)C2)CC(=O)[C@H](C)C=C(C)[C@@H](O)[C@@H](OC)C(=O)[C@H](C)C[C@H](C)/C=C/C=C/C=C1C,–,21 µM,1.82 µM,31.1 µM,2.55 µM,21.1 µM,< 0.01 µM,17 µM,< 0.01 µM,19.1 µM,< 0.0108 µM,18.1 µM,< 0.01 µM,17.3 µM,< 0.01 µM,15.3 µM,< 0.01 µM,14.5 µM,0.0199,20
COc1nnc2ccc(N3CCC(c4ccc(OCCN5CCN(C)C(=O)[C@H]5C)cc4)CC3)nn12,0.0237 µM,> 100 µM,0.606 µM,> 100 µM,0.0392 µM,> 100 µM,0.0876 µM,> 100 µM,0.0555 µM,> 70.2 µM,0.961 µM,> 100 µM,0.206 µM,> 100 µM,0.116 µM,> 100 µM,0.0396 µM,> 100 µM,0.0541,> 65.3
Nc1ncnc2c1ncn2C1OC(CO)C(O)C1N (configuration not stated),–,> 100 µM,–,> 100 µM,–,> 100 µM,–,> 100 µM,–,> 100 µM,–,> 100 µM,–,> 100 µM,–,> 100 µM,–,> 100 µM,–,> 100
CCN1CCN(C(=O)[C@]23CCC(C)(C)C[C@@H]2C2=CC[C@@H]4[C@@]5(C)C/C(=C/c6ccncc6)C(=O)C(C)(C)[C@@H]5CC[C@@]4(C)[C@]2(C)CC3)CC1,1.45 µM,2.95 µM,1.31 µM,2.66 µM,1.38 µM,3.14 µM,1.6 µM,3.13 µM,1.95 µM,3.47 µM,1.42 µM,2.87 µM,1.43 µM,2.76 µM,1.64 µM,3.04 µM,1.24 µM,2.5 µM,1.07,2.39
COC(=O)c1ccc(NC(=O)Oc2ccc(N(CCCl)CCCl)cc2)cc1,0.434 µM,7.36 µM,2.97 µM,94.1 µM,16.5 µM,> 100 µM,11.8 µM,59.8 µM,21.6 µM,58.9 µM,3.09 µM,41.4 µM,1.38 µM,11.4 µM,2.92 µM,18.9 µM,4.86 µM,29.7 µM,14.3,53.4
CCOC(=O)c1cnc2c(C)cccc2c1Nc1ccc(C(C)=O)cc1,79 µM,> 100 µM,24.9 µM,> 100 µM,19.2 µM,> 100 µM,25.5 µM,> 100 µM,32.8 µM,82.9 µM,63.8 µM,> 100 µM,36.2 µM,> 100 µM,34.3 µM,> 100 µM,13.5 µM,> 100 µM,8.95,36.9
COC(=O)CSSCc1ccc([N+](=O)[O-])cc1,–,8.09 µM,–,34.1 µM,–,60.8 µM,–,17.1 µM,–,55.7 µM,–,30.8 µM,–,43 µM,–,32.7 µM,–,27.9 µM,–,> 100
COc1cc(CCc2ccc(N)cc2)cc(OC)c1OC,–,> 100 µM,–,> 100 µM,–,> 100 µM,–,> 100 µM,–,> 100 µM,–,> 100 µM,–,> 61.6 µM,–,> 100 µM,–,> 93.1 µM,–,> 100
C=CC(=O)N1CC2(CC(n3nc(-c4ccc5c(cnn5C)c4)c(-c4c(Cl)c(C)cc5[nH]ncc45)c3C)C2)C1,3.95 µM,14.3 µM,3.08 µM,12.1 µM,3.62 µM,29.5 µM,2.76 µM,8.18 µM,3.18 µM,12.8 µM,1.89 µM,4.07 µM,2.16 µM,5.43 µM,2.15 µM,5.17 µM,1.97 µM,4.68 µM,3.36,14.3
CCN(CC)Cc1cc2[nH]c3c4ccc(Cl)cc4ncc3c2cc1OC,3.36 µM and 2.3 µM,9.14 µM and 9.8 µM,10.8 µM and 13.7 µM,22.7 µM and 26.7 µM,1.78 µM and 1.91 µM,5.6 µM and 4.82 µM,2.13 µM and 3.42 µM,12.4 µM and 13.6 µM,5.4 µM and 2.62 µM,11.2 µM and 5.62 µM,2.18 µM and 2.16 µM,5.97 µM and 5.39 µM,4.98 µM and 1.95 µM,9.67 µM and 4.01 µM,1.61 µM and 1.78 µM,2.97 µM and 3.25 µM,4.25 µM and 1.59 µM,8.93 µM and 3.83 µM,5.14,22.1
CC[C@H](C)[C@H](NC(=O)CN(C)C)C(=O)N(C)[C@H](C[C@@H](OC(C)=O)c1nc(C(=O)NC23CC(C(=O)OC)(C2)C3)cs1)C(C)C,12.3 µM,> 25 µM,0.268 µM,> 25 µM,0.102 µM,> 25 µM,0.412 µM,> 25 µM,> 25 µM,> 25 µM,0.417 µM,> 25 µM,0.647 µM,> 25 µM,0.307 µM,1.56 µM,12.6 µM,> 25 µM,> 25,> 25
O=C(Nc1nc2ccccc2s1)Nc1ccc([N+](=O)[O-])cc1Cl,6.25 µM,16.2 µM,4.36 µM,9.53 µM,7.3 µM,21.9 µM,4.71 µM,10.4 µM,3.18 µM,7.87 µM,2.13 µM,4.75 µM,3.31 µM,15.8 µM,1.69 µM,3.11 µM,2.24 µM,6.44 µM,3.81,11.7
